Values joined by “and” are separate entries in the source; they are usually repeats but may differ in a detail not shown here. Identical values can stand only once.
What was measured:
Assay type in all cases: in vivo
[1] = test system: Digitaria sanguinalis (large crabgrass); assay: Greenhouse postemergence herbicidal effect on DIGSA; settings: Ethephon 0 g/ha
Source text: (§1) Seeds of the desired test plant species were planted in a 90:10% v/v (volume/volume) mixture of PRO-MIX® BX (Premier Tech Horticulture, Quakertown, Pa., USA) and PROFILE® GREENS GRADE™ (Profile Products LLC, Buffalo Grove, Ill., USA) planting mixture, which typically has a pH of 5.2 to 6.2 and an organic matter content of at least 50 percent, in plastic pots with a surface area of 103.2 square centimeters (cm^2). In some aspects, to help ensure good germination and healthy plants, a fungicide treatment and/or other chemical or physical treatment was applied. The plants were grown for 7-36 days (d) in a greenhouse with an approximate 14-hour (h) photoperiod which was maintained at about 23° C. during the day and 22° C. during the night. Nutrients and water were added on a regular basis and supplemental lighting was provided with overhead metal halide 1000-Watt lamps as necessary. The plants were employed for testing when they reached the second or third true leaf stage.
(§2) Emulsifiable concentrates of each of each pyridine carboxylate herbicide (Compound A or Compound B) were prepared at 100 grams acid equivalent per liter (g ae/L). The emulsifiable concentrates also included a safener, cloquintocet-mexyl, at 120 grams active ingredient per liter (g ai/L). […]
(§3) The treated plants and control plants were placed in a greenhouse as described above and watered by sub-irrigation to prevent wash-off of the test compounds. After 20-22 d, the condition of the test plants as compared with that of the control plants was determined visually and scored on a scale of 0 to 100 percent where 0 corresponds to no injury and 100 corresponds to complete kill. […]

[2] = test system: Euphorbia heterophylla (poinsettia); assay: Greenhouse postemergence herbicidal effect on EPHHL; settings: for Herbicidal Effects (% visual injury) EPHHL Obs: Ethephon 0 g/ha
Source text: as §1
(§4) Emulsifiable concentrates of each of each pyridine carboxylate herbicide (Compound A or Compound B) were prepared at 100 grams acid equivalent per liter (g ae/L). The emulsifiable concentrates also included a safener, cloquintocet-mexyl, at 120 grams active ingredient per liter (g ai/L). An aliquot of each emulsifiable concentrate was placed in a 25 mL glass vial and diluted with an aqueous mixture of 1.25% (v/v) ACTIROB® B esterified rapeseed oil (Bayer Crop Science, Research Triangle Park, N.C., USA) or MSO® Concentrate with LECI-TECH® methylated soybean oil (Loveland Products, Loveland, Colo., USA) to obtain concentrated stock solutions at the highest application rate for each herbicide, based upon a 12 milliliter (mL) application volume at a rate of 187 liters per hectare (L/ha). The concentrated stock solutions were further diluted with an aqueous mixture of 1.25% v/v ACTIROB® B or MSO® Concentrate with LECI-TECH® to obtain stock solutions at reduced application rates for each herbicide. Spray solutions of the herbicide combinations (Compound A or Compound B plus the PGR) were prepared by adding weighed amounts or aliquots of the PGR to the stock solutions of Compound A or Compound B to form 12-mL spray solutions in two-way combinations.
(§5) The spray solutions were applied to the plant material with an overhead Mandel track sprayer equipped with 8002E nozzles calibrated to deliver 187 L/ha over an application area of 0.503 square meters (m^2) at a spray height of 18 inches (43 centimeters (cm)) above the average plant canopy. Control plants were sprayed in the same manner with the solvent blank. All pyridine carboxylate herbicide (component a) application rates are given as “g ae/ha” and all PGR (component b) application rates are given as “g ai/ha.”
(§6) The treated plants and control plants were placed in a greenhouse as described above and watered by sub-irrigation to prevent wash-off of the test compounds. After 20-22 d, the condition of the test plants as compared with that of the control plants was determined visually and scored on a scale of 0 to 100 percent where 0 corresponds to no injury and 100 corresponds to complete kill.

[3] = test system: Polygonum convolvulus (wild buckwheat); assay: Greenhouse postemergence herbicidal effect on POLCO; settings: for Herbicidal Effects (% visual injury) POLCO Obs: Ethephon 0 g/ha
Source text: as §1, §4, §5, §6

[4] = test system: Brassica napus (winter rape); assay: Greenhouse postemergence herbicidal effect on BRSNW
Source text: as §1, §2, §6

[5] = test system: Sinapis arvensis (wild mustard); assay: Greenhouse postemergence herbicidal effect on SINAR
Source text: as §1, §2, §6

[6] = test system: Echinochloa crus-galli (barnyard grass); assay: Greenhouse postemergence herbicidal effect on ECHCG; settings: Ethephon 0 g/ha
Source text: as §1, §2, §3

SMILES: N#CCOC(=O)c1nc(-c2ccc3cc[nH]c3c2F)c(F)c(N)c1Cl [Compound A, cyanomethyl 4-amino-3-chloro-5-fluoro-6-(7-fluoro-1H-indol-6-yl)pyridine-2-carboxylate]
- Herbicidal Effects (% visual injury) DIGSA Obs ([1]; Compound A 7.5 g/ha): 10%
- Herbicidal Effects (% visual injury) DIGSA Obs ([1]; Compound A 10 g/ha): 10%
- Herbicidal Effects (% visual injury) EPHHL Obs ([2]; Compound A 7.5 g/ha): 100%
- Herbicidal Effects (% visual injury) EPHHL Obs ([2]; Compound A 10 g/ha): 100%
- % visual injury Obs ([2]; herbicide 7.5 g ae/ha alone): 91%
- % visual injury Obs ([2]; herbicide 10 g ae/ha alone): 83%
- Herbicidal Effects (% visual injury) POLCO Obs ([3]; Compound A 7.5 g/ha): 100%
- Herbicidal Effects (% visual injury) POLCO Obs ([3]; Compound A 10 g/ha): 100%
- % visual injury Obs ([3]; herbicide 7.5 g ae/ha alone): 68% and 83% and 65%
- % visual injury Obs ([3]; herbicide 10 g ae/ha alone): 70% and 93% and 78%
- % visual injury Obs ([3]; herbicide 15 g ae/ha alone): 85%
- % visual injury Obs ([4]; herbicide 7.5 g ae/ha alone): 60%
- % visual injury Obs ([4]; herbicide 10 g ae/ha alone): 65%
- % visual injury Obs ([4]; herbicide 15 g ae/ha alone): 73%
- % visual injury Obs ([5]; herbicide 7.5 g ae/ha alone): 88%
- % visual injury Obs ([5]; herbicide 10 g ae/ha alone): 91%
- % visual injury Obs ([5]; herbicide 15 g ae/ha alone): 91%
- Herbicidal Effects (% visual injury) ECHCG Obs ([6]; Compound A 7.5 g/ha): 90%
- Herbicidal Effects (% visual injury) ECHCG Obs ([6]; Compound A 10 g/ha): 94%
